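Interpolation was linear, between the two tested concentrations surrounding the appropriate level; five concentrations were tested over 48 hours in 96-well plates. At the GI50, growth is halved. TGI is the concentration that stops growth completely.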
Experiments:
Experiment in all cases: inhibition of tumour cell growth, NCI panel, 48 h
786-0 renal = tested on: 786-0 renal
K-562 leukemia = tested on: K-562 leukemia
M14 melanoma = tested on: M14 melanoma
HL-60(TB) leukemia = tested on: HL-60(TB) leukemia
RPMI-8226 leukemia = tested on: RPMI-8226 leukemia
TK-10 renal = tested on: TK-10 renal
SR leukemia = tested on: SR leukemia
HCT-116 colon = tested on: HCT-116 colon
T-47D breast = tested on: T-47D breast
DU-145 prostate = tested on: DU-145 prostate

Row | SMILES | TGI (786-0 renal) [µM] | TGI (K-562 leukemia) [µM] | TGI (M14 melanoma) [µM] | TGI (HL-60(TB) leukemia) [µM] | TGI (RPMI-8226 leukemia) [µM] | TGI (TK-10 renal) [µM] | GI50 (786-0 renal) [µM] | GI50 (K-562 leukemia) [µM] | GI50 (M14 melanoma) [µM] | GI50 (SR leukemia) [µM] | TGI (SR leukemia) [µM] | GI50 (HCT-116 colon) [µM] | TGI (HCT-116 colon) [µM] | GI50 (HL-60(TB) leukemia) [µM] | GI50 (RPMI-8226 leukemia) [µM] | GI50 (TK-10 renal) [µM] | GI50 (T-47D breast) [µM] | TGI (T-47D breast) [µM] | GI50 (DU-145 prostate) [µM] | TGI (DU-145 prostate) [µM]
1 | CC1(C)Cc2nnsc2C2=C1C(=O)CCS2 | > 100 | > 100 | > 100 | > 100 | > 100 | > 100 | – | – | – | – | – | – | – | – | – | – | – | – | – | –
2 | C[CH2][Ge]([CH2]C)([CH2]C)[O]C(=O)C([O][Ge]([CH2]C)([CH2]C)[CH2]C)c1ccccc1 (stereo unspecified) | 74.3 | 46.1 | 44.2 | 38.9 | > 100 | > 100 | 22.4 | 14.3 | 17.1 | 14.5 | 75.4 | 13.9 | 30.2 | 14.7 | 11.2 | 47.6 | – | – | – | –
3 | COC(=O)c1ccc(NC(N)=NCC(C)(C)COc2ccc(C(F)(F)F)cc2)nc1 | 2.83 | – | – | 3.56 | 3.64 | 3 | 1.46 | – | – | – | – | – | – | 1.79 | 1.3 | 1.57 | 1.37 | 3.21 | 1.7 | 3.2
4 | CN(C)CCC(/C=C/c1ccccc1)=N\Nc1ccc(Cl)cc1 | 6.26 | 5.02 | 12.5 | 5.32 | 4.69 | 7.85 | – | – | – | – | – | – | 13.7 | – | – | – | – | – | – | –
5 | Cc1cc(Cl)ccc1N1C(=O)C(=O)C(c2nc3ccccc3o2)C(=O)C1=O | > 100 | – | > 100 | > 100 | – | > 100 | – | – | – | – | > 100 | – | > 100 | – | – | – | – | – | – | –
6 | Cc1cc(Cl)cc2c1NC(=O)C2(O)CC(=O)c1ccc(F)cc1 (stereo unspecified) | > 100 | – | > 100 | – | 65.3 | > 100 | – | – | – | – | – | – | > 100 | – | – | – | – | – | – | –
7 | CN(C)CCC(=O)N1CCc2c([nH]c3ccccc23)C1c1cccnc1 (stereo unspecified) | > 100 | > 100 | > 100 | > 100 | > 100 | > 100 | – | – | – | – | > 100 | – | > 100 | – | – | – | – | – | – | –
8 | Cc1nc2ccccc2c(/C=C/c2ccccc2)c1C(=O)/C=C/c1ccc(Cl)cc1 | 2.99 | 4.87 | – | 3.12 | 3.58 | – | 1.58 | 0.868 | – | 0.54 | 3.75 | 0.485 | 1.81 | 0.871 | 0.784 | – | – | – | – | –
9 | COc1ccc(C(=O)C/C(=N/NC(N)=S)C(=O)Nc2ccccc2)cc1 | > 100 | > 100 | > 100 | > 100 | > 100 | > 100 | – | – | – | – | – | – | > 100 | – | – | – | – | – | – | –
10 | Cc1ccc(S(=O)(=O)N[C@@H](Cc2ccccc2)C(=O)CCl)cc1 | 27 | 31.4 | 63.1 | – | – | 41.7 | 10.6 | 4.26 | 19.9 | – | – | 12.9 | > 100 | – | – | 19.4 | 21.4 | > 100 | 11.1 | 26.1
11 | CCOc1ccc2c(c1)C(=O)c1c-2n(CCCN)c(=O)c2cc([N+](=O)[O-])ccc12 | 0.214 | – | 1.19 | 2.4 | 0.302 | 2.78 | 0.0291 | – | 0.0343 | < 0.01 | 2.17 | 0.0638 | 0.543 | 0.314 | 0.0443 | 1.27 | – | – | < 0.0107 | 0.213
12 | NC1=NCC(c2ccccn2)C1c1ccc(F)cc1 (stereo unspecified) | > 100 | > 100 | > 100 | – | > 100 | > 100 | – | – | – | – | > 100 | – | > 100 | – | – | – | – | – | – | –
13 | OCC#CCCCCOCC#Cc1ccccc1C#CCOCCCCC#CCO | > 100 | 65.6 | > 100 | > 100 | 87.8 | 41.6 | 36.9 | 22.3 | 31.2 | 43.6 | > 100 | 22.5 | > 100 | 36.2 | 29.3 | 11.9 | – | – | 17.6 | 41.3
14 | CCP(C)(C)=O | > 100 | > 100 | > 100 | – | > 100 | > 100 | – | – | – | – | – | – | – | – | – | – | – | – | – | –
15 | NC(=NCCO)c1ccc(N2CCCN(c3ccc(C(N)=NCCO)cc3)CC2)cc1 | > 100 | – | > 100 | – | – | > 100 | > 100 | – | > 100 | – | – | > 100 | > 100 | – | – | > 100 | > 100 | > 100 | – | –
16 | Cc1cccc(C)c1NC(=O)CCCC(=O)C(C#N)c1ccc(Cl)cc1 (stereo unspecified) | > 100 | > 100 | > 100 | > 100 | > 100 | > 100 | – | – | – | – | > 100 | – | > 100 | – | – | – | – | – | – | –
17 | COc1ccc(C2N3CCCCC3[C@@H]3c4[nH]c5ccccc5c4CCN23)c(OC)c1 (stereo partly specified) | > 100 | > 100 | 30.5 | 42 | 45.6 | 69.1 | – | – | – | – | – | – | 38 | – | – | – | – | – | – | –
18 | COC(=O)[C@@H]1[C@H](O)[C@H](C)[C@H](O)[C@H](C)/C=C\C=C(C)C(=O)Nc2c(C)c(OC(C)=O)c3c(c2O)C(=O)C(C)=C2OCOC(=C23)C(C)=C[C@@](C)(O)[C@H](O)[C@@H](C)[C@H]1OC(C)=O | > 100 | > 100 | > 100 | 34 | 56.9 | – | – | – | – | – | > 100 | – | 48.6 | – | – | – | – | – | – | > 100
19 | O=C([CH-]C(=O)c1ccccc1)c1ccccc1.[CH3-].[CH3-].[CH3-].[Sn+4] | 33.1 | 23.6 | 29.5 | 16 | 26.2 | 84.9 | 10.2 | 4.92 | 14.7 | 1.93 | 11.5 | 5.95 | 19.1 | 2.67 | 4.99 | 31.7 | – | – | – | –
20 | Cc1cccc(Cl)c1NC(=O)c1cccc([N+](=O)[O-])c1O | > 100 | > 100 | > 100 | – | 64.6 | – | – | – | – | – | – | – | > 100 | – | – | – | – | – | – | –
21 | O=[N+]([O-])c1ccc2nc3ccscc-3c2c1 | > 100 | > 100 | 32.4 | 30.4 | 44.1 | > 100 | – | – | – | – | – | – | – | – | – | – | – | – | – | –
22 | Cc1ccccc1NC(=O)C(=O)CC(=O)C1CCOC1=O (stereo unspecified) | > 100 | > 100 | > 100 | > 100 | > 100 | > 100 | – | – | – | – | – | – | > 100 | – | – | – | – | – | – | –
23 | Cc1cc(S(=O)(=O)Nc2nc3ccccc3[nH]2)c(SCc2ccccc2)cc1Cl | > 100 | > 100 | > 100 | > 100 | > 100 | > 100 | 62.9 | 66.3 | > 100 | 26.1 | > 100 | 51.6 | > 100 | > 100 | 28.9 | 38 | – | – | > 100 | > 100
24 | CCOC(=O)N1CCc2cc(OC)c(OC)cc2/C1=C/c1ccc(OC)c(OC)c1 | > 100 | > 100 | > 100 | 65.1 | 56.5 | > 100 | – | – | – | – | > 100 | – | > 100 | – | – | – | – | – | – | –
25 | CC(C)(C)c1cc(-c2c3nc(c(-c4cc(C(C)(C)C)cc(C(C)(C)C)c4)c4ccc([nH]4)c(-c4cc(C(C)(C)C)cc(C(C)(C)C)c4)c4nc(c(-c5cc(C(C)(C)C)cc(C(C)(C)C)c5)c5ccc2[nH]5)C=C4)C=C3)cc(C(C)(C)C)c1 | > 100 | > 100 | > 100 | > 100 | > 100 | > 100 | – | – | – | – | > 100 | – | > 100 | – | – | – | – | – | – | –
26 | Cc1cccc2cc3cccc(C(=O)NCCN(C)C)c3nc12 | 11.5 | 11.3 | 2.43 | 1.15 | – | 7.88 | – | – | – | – | 0.118 | – | 1.54 | – | – | – | – | – | – | –
27 | CNC(C)[C@H]1CCC2C3CCC4C[C@@H](N(C)C(=O)c5ccccc5)CC[C@]4(C)C3CC[C@@]21C (stereo partly specified) | 2.82 | 2.46 | 2.95 | 4.28 | 3.3 | 7.83 | 1.3 | 0.351 | 1.3 | – | – | 0.409 | 1.73 | 1.58 | 0.426 | 2.16 | 0.37 | 4.26 | 3.46 | 16.6
28 | C/C=C/C=C/CCCCCCCCCCCCC[C@]1(OC)C=CC(CC(=O)OC)OO1 (stereo partly specified) | 33.4 | 52.1 | 31.9 | – | 49.2 | 31.7 | 17.1 | – | – | – | – | – | 29.6 | – | – | 17.6 | – | – | – | –
29 | COc1cc(/C=C2\NC(=S)C3Cc4c(OC)c(C)c(OC)c(OC)c4C2N3C)c(OC)c(C)c1OC (stereo unspecified) | > 100 | > 100 | > 100 | 67.6 | > 100 | > 100 | – | – | – | – | 55.3 | – | > 100 | – | – | – | – | – | – | –
30 | O=C1c2ccccc2C(=O)c2sc(Nc3ccc(Cl)cc3)nc21 | 3.93 | 5.12 | 3.96 | 1.05 | 4.73 | 14.6 | – | – | – | – | 5.84 | – | 3.4 | – | – | – | 1.8 | 7.52 | – | –
